Molecular target: activated ERK2 (Homo sapiens (Human), UniProt P28482)
Assay: Activated ERK2 kinase assay (AlphaScreen, ERKtide peptide phosphorylation)
Format: biochemical
Conditions: […] ERK2, 200 nM ERKtide peptide, 35 μM ATP, 30 min preincubation; read-out: ERK2 IC50
Description: Production of Activated ERK2 Protein:
Activated ERK2 protein was generated in insect cells by co-expression with a constitutively active form of MEK1. The ERK2 protein was expressed and purified as a nHis-PreScission-ERK2 tagged protein and then proteolytically processed to the full-length wild-type protein. […] Double-phosphorylated ERK2 protein was purified from the mixture by mono-Q column separation.
Activated ERK2 Kinase Assay:
A 16-point, half-log dilution series of compounds at 41× final concentration was used for generating IC50 curves. Compound dilution series were prepared in 100% DMSO. ERK2 was preincubated with compounds for 30 minutes at ambient temperature. Reaction was initiated by addition of a substrate cocktail of ERKtide peptide and ATP and was allowed to proceed for 2-3 hours at ambient temperature. Reaction was terminated by addition of 10 μL of a 2× stop buffer consisting of 100 mM Tris-Cl [pH 7.5], 25 mM EDTA, 0.01% Tween 20, 10 μg/mL of AlphaScreen Protein A Acceptor Beads, 10 μg/mL of Streptavidin Donor Beads (PerkinElmer, Waltham, Mass.), and 1.4 μg/mL phospho-EGF Receptor (Thr669) antibody (Cat #3056, Cell Signaling Technology, Danvers, Mass.). Terminated reactions were read, after overnight incubation in the dark, on an EnVision Multilabel Plate Reader (PerkinElmer, Waltham, Mass.), with excitation and emission wavelengths set to 680 nm and 570 nm, respectively. IC50 values were determined using a four-parameter fit.

activated ERK2, sequence (P28482 whole entry): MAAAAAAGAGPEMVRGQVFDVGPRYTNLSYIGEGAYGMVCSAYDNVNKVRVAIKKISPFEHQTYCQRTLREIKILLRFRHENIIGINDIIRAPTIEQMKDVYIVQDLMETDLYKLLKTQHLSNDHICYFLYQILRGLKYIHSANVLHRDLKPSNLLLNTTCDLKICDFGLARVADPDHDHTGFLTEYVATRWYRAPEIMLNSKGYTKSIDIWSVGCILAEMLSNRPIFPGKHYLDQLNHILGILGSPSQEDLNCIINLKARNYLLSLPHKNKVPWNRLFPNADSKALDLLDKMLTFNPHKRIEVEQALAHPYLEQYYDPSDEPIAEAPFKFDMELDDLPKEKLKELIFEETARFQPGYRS

| Compound | IC50 [nM] |
| --- | --- |
| Cc1ccc(S(=O)(=O)N2CCC[C@@H](NC(=O)N3Cc4nc(NC5CCOCC5)ncc4C3(C)C)C2)cc1 [compound 114, (R)-5,5-dimethyl-2-((tetrahydro-2H-pyran-4-yl)amino)-N-(1-tosylpiperidin-3-yl)-5H-pyrrolo[3,4-d]pyrimidine-6(7H)-carboxamide] | 176 |
| CCC1(C)c2cnc(NC3CCOCC3)nc2CN1C(=O)NCc1ccc(Cl)cc1 (centres unmarked) [compound 78, N-(4-chlorobenzyl)-5-ethyl-5-methyl-2-((tetrahydro-2H-pyran-4-yl)amino)-5H-pyrrolo[3,4-d]pyrimidine-6(7H)-carboxamide] | 22 |
| CC1(C)c2cnc(N[C@H]3CC[C@H](C#N)CC3)nc2CN1C(=O)N[C@H](CO)c1ccccc1 [compound 81, 2-(((1r,4S)-4-cyanocyclohexyl)amino)-N-((S)-2-hydroxy-1-phenylethyl)-5,5-dimethyl-5H-pyrrolo[3,4-d]pyrimidine-6(7H)-carboxamide] | 114 |
| CC1(CO)c2cnc(NC3CCOCC3)nc2CN1C(=O)NCc1ccccc1 (centres unmarked) [compound 90, N-benzyl-5-(hydroxymethyl)-5-methyl-2-((tetrahydro-2H-pyran-4-yl)amino)-5H-pyrrolo[3,4-d]pyrimidine-6(7H)-carboxamide] | 4020 |
| CC1(C)c2cnc(NC3CCOCC3)nc2CN1C(=O)Nc1cnn(Cc2ccccc2F)c1 [compound 105, N-(1-(2-fluorobenzyl)-1H-pyrazol-4-yl)-5,5-dimethyl-2-((tetrahydro-2H-pyran-4-yl)amino)-5H-pyrrolo[3,4-d]pyrimidine-6(7H)-carboxamide] | 39 |
| Cc1cccc(S(=O)(=O)N2CCC[C@@H](NC(=O)N3Cc4nc(NC5CCOCC5)ncc4C3(C)C)C2)c1 [compound 113, (R)-5,5-dimethyl-2-((tetrahydro-2H-pyran-4-yl)amino)-N-(1-(m-tolylsulfonyl)piperidin-3-yl)-5H-pyrrolo[3,4-d]pyrimidine-6(7H)-carboxamide] | 45 |
| CC1(C)c2cnc(NCC3CC3)nc2CN1C(=O)N[C@H](CO)c1ccccc1 [compound 53, (S)-2-((cyclopropylmethyl)amino)-N-(2-hydroxy-1-phenylethyl)-5,5-dimethyl-5H-pyrrolo[3,4-d]pyrimidine-6(7H)-carboxamide] | 505 |
| CC[C@@]1(C)c2cnc(NC3CCOCC3)nc2CN1C(=O)N[C@H](CO)c1ccccc1 [compound 79, (S)-5-ethyl-N-((S)-2-hydroxy-1-phenylethyl)-5-methyl-2-((tetrahydro-2H-pyran-4-yl)amino)-5H-pyrrolo[3,4-d]pyrimidine-6(7H)-carboxamide] | 971 |
| CNC(=O)C1CC(NC(=O)N2Cc3nc(NC4CCOCC4)ncc3C2(C)C)CN(Cc2cccc(Cl)c2)C1 (centres unmarked) [compound 103, N-(1-(3-chlorobenzyl)-5-(methylcarbamoyl)piperidin-3-yl)-5,5-dimethyl-2-((tetrahydro-2H-pyran-4-yl)amino)-5H-pyrrolo[3,4-d]pyrimidine-6(7H)-carboxamide] | 9190 |
| C[C@@H](NC(=O)N1Cc2nc(NC3CCOCC3)ncc2C1(C)CO)c1ccccc1 (stereo partly drawn) [compound 91, 5-(hydroxymethyl)-5-methyl-N-((R)-1-phenylethyl)-2-((tetrahydro-2H-pyran-4-yl)amino)-5H-pyrrolo[3,4-d]pyrimidine-6(7H)-carboxamide] | 657 |
| CC(=O)N1CC(Nc2ncc3c(n2)CN(C(=O)N[C@H](CO)c2ccccc2)C3(C)C)C1 [compound 69, (S)-2-((1-acetylazetidin-3-yl)amino)-N-(2-hydroxy-1-phenylethyl)-5,5-dimethyl-5H-pyrrolo[3,4-d]pyrimidine-6(7H)-carboxamide] | 5580 |
| CC1(C)c2cnc(NCCC#N)nc2CN1C(=O)N[C@H](CO)c1ccccc1 [compound 58, (S)-2-((2-cyanoethyl)amino)-N-(2-hydroxy-1-phenylethyl)-5,5-dimethyl-5H-pyrrolo[3,4-d]pyrimidine-6(7H)-carboxamide] | 1530 |
| C[C@@H](NC(=O)N1Cc2nc(NC3CCOCC3)ncc2C1(C)C)c1cc(F)cc(S(C)(=O)=O)c1 [compound 115, (R)-N-(1-(3-fluoro-5-(methylsulfonyl)phenyl)ethyl)-5,5-dimethyl-2-((tetrahydro-2H-pyran-4-yl)amino)-5H-pyrrolo[3,4-d]pyrimidine-6(7H)-carboxamide] | 2 |

Continued, values first:

| IC50 [nM] | Compound |
| --- | --- |
| 6 | CC1(C)c2cnc(NC3CCOCC3)nc2CN1C(=O)NCc1cc(Cl)cc(S(C)(=O)=O)c1 [compound 109, N-(3-chloro-5-(methylsulfonyl)benzyl)-5,5-dimethyl-2-((tetrahydro-2H-pyran-4-yl)amino)-5H-pyrrolo[3,4-d]pyrimidine-6(7H)-carboxamide] |
| 14 | CC1(C)c2cnc(NC3CCOCC3)nc2CN1C(=O)N[C@H](CN)c1ccccc1 [compound 32, (S)-N-(2-amino-1-phenylethyl)-5,5-dimethyl-2-((tetrahydro-2H-pyran-4-yl)amino)-5H-pyrrolo[3,4-d]pyrimidine-6(7H)-carboxamide] |
| 839 | CCNC(=O)N1Cc2nc(NC3CCOCC3)ncc2C1(C)C [compound 50, N-ethyl-5,5-dimethyl-2-((tetrahydro-2H-pyran-4-yl)amino)-5H-pyrrolo[3,4-d]pyrimidine-6(7H)-carboxamide] |
| 21 | CC1(C)c2cnc(NC3CCOCC3)nc2CN1C(=O)NCc1cc(F)cc(F)c1 [compound 19, N-(3,5-difluorobenzyl)-5,5-dimethyl-2-((tetrahydro-2H-pyran-4-yl)amino)-5H-pyrrolo[3,4-d]pyrimidine-6(7H)-carboxamide] |
| 27 | CC1(C)c2cnc(NC3CCOCC3)nc2CN1C(=O)N[C@@H]1CCCN(S(=O)(=O)c2ccccc2)C1 [compound 42, (R)-5,5-dimethyl-N-(1-(phenylsulfonyl)piperidin-3-yl)-2-((tetrahydro-2H-pyran-4-yl)amino)-5H-pyrrolo[3,4-d]pyrimidine-6(7H)-carboxamide] |
| 65 | CC1(C)c2cnc(NC3CCOCC3)nc2CN1C(=O)NCc1ccc(S(C)(=O)=O)cc1 [compound 108, 5,5-dimethyl-N-(4-(methylsulfonyl)benzyl)-2-((tetrahydro-2H-pyran-4-yl)amino)-5H-pyrrolo[3,4-d]pyrimidine-6(7H)-carboxamide] |
| 894 | CC1(C)c2cnc(NC3CCOCC3)nc2CN1C(=O)NCc1cccnc1 [compound 3, 5,5-dimethyl-N-(pyridin-3-ylmethyl)-2-((tetrahydro-2H-pyran-4-yl)amino)-5H-pyrrolo[3,4-d]pyrimidine-6(7H)-carboxamide] |
| 202 | CN(Cc1ccccc1)C(=O)N1Cc2nc(NC3CCOCC3)ncc2C1(C)C [compound 27, N-benzyl-N,5,5-trimethyl-2-((tetrahydro-2H-pyran-4-yl)amino)-5H-pyrrolo[3,4-d]pyrimidine-6(7H)-carboxamide] |
| 49 | CC1(C)c2cnc(NC3CCOCC3)nc2CN1C(=O)NCc1nc2ccccc2s1 [compound 30, N-(benzo[d]thiazol-2-ylmethyl)-5,5-dimethyl-2-((tetrahydro-2H-pyran-4-yl)amino)-5H-pyrrolo[3,4-d]pyrimidine-6(7H)-carboxamide] |
| 2730 | CC1(C)c2cnc(NC3CCOCC3)nc2CN1C(=O)NC1(c2ccccc2)CCOCC1 [compound 44, 5,5-dimethyl-N-(4-phenyltetrahydro-2H-pyran-4-yl)-2-((tetrahydro-2H-pyran-4-yl)amino)-5H-pyrrolo[3,4-d]pyrimidine-6(7H)-carboxamide] |
| 31 | CC1(C)c2cnc(NC3CCOCC3)nc2CN1C(=O)NCC1CCCCC1 [compound 47, N-(cyclohexylmethyl)-5,5-dimethyl-2-((tetrahydro-2H-pyran-4-yl)amino)-5H-pyrrolo[3,4-d]pyrimidine-6(7H)-carboxamide] |
| 1 | CC1(C)c2cnc(NC3CCOCC3)nc2CN1C(=O)NCc1ccc(Cl)c(Cl)c1 [compound 126, N-(3,4-dichlorobenzyl)-5,5-dimethyl-2-((tetrahydro-2H-pyran-4-yl)amino)-5H-pyrrolo[3,4-d]pyrimidine-6(7H)-carboxamide] |
| 5440 | CC1(C)c2cnc(NC3CCOCC3)nc2CN1C(=O)NCc1cc[nH]c(=O)c1 [compound 34, 5,5-dimethyl-N-((2-oxo-1,2-dihydropyridin-4-yl)methyl)-2-((tetrahydro-2H-pyran-4-yl)amino)-5H-pyrrolo[3,4-d]pyrimidine-6(7H)-carboxamide] |
| 15500 | CC1(C)c2cnc(NC3CCOCC3)nc2CN1C(=O)N[C@H]1CCCN(Cc2ccccc2F)C1 [compound 5, (S)-N-(1-(2-fluorobenzyl)piperidin-3-yl)-5,5-dimethyl-2-((tetrahydro-2H-pyran-4-yl)amino)-5H-pyrrolo[3,4-d]pyrimidine-6(7H)-carboxamide] |
| 56 | COc1ccc(CNC(=O)N2Cc3nc(NC4CCOCC4)ncc3C2(C)C)cc1 [compound 125, N-(4-methoxybenzyl)-5,5-dimethyl-2-((tetrahydro-2H-pyran-4-yl)amino)-5H-pyrrolo[3,4-d]pyrimidine-6(7H)-carboxamide] |
| 541 | CC1(C)c2cnc(NC3CCOCC3)nc2CN1C(=O)NCC1CC1 [compound 37, N-(cyclopropylmethyl)-5,5-dimethyl-2-((tetrahydro-2H-pyran-4-yl)amino)-5H-pyrrolo[3,4-d]pyrimidine-6(7H)-carboxamide] |

Source: patent US9546173B2 (Novartis AG, priority 2012, dated 2017)
